ChEMBL document CHEMBL5543153, “Discovery of a Potent Dual Son of Sevenless 1 (SOS1) and Epidermal Growth Factor Receptor (EGFR) Inhibitor for the Treatment of Prostate Cancer” (J Med Chem, 2024)
Activity calls are given as the source filed them. No cut-off for these calls is given here.

How the values were obtained:
PC-3 [1] = test: Induction of cell cycle arrest in human PC-3 cells assessed as accumulation of cells at S phase at 12.5 uM by PI staining based flow cytometry (reference value: 16.58%); type: functional
PC-3 [2] = test: Induction of cell cycle arrest in human PC-3 cells assessed as downregulation of CDK4 expression by Western blotting analysis; type: functional, cell-based
[3] = Toxicity in BALB/c mouse xenografted with human PC-3 cells assessed as liver pathological change at 5 mg/kg,ip administrated once every 4 days for 24 days by hematoxylin and eosin staining based analysis; type: organism-based; conditions: in vivo, 576 h, time 24 day
[4] = molecular target: Epidermal growth factor receptor (Homo sapiens, UniProt P00533); test: Inhibition of EGFR in human PC-3 cells assessed as downregulation of EGF-mediated AKT phosphorylation at 12.5 uM incubated for 15 mins in presence of EGF by Western blotting analysis; type: cell-based
Epidermal growth factor receptor, sequence (P00533 whole entry): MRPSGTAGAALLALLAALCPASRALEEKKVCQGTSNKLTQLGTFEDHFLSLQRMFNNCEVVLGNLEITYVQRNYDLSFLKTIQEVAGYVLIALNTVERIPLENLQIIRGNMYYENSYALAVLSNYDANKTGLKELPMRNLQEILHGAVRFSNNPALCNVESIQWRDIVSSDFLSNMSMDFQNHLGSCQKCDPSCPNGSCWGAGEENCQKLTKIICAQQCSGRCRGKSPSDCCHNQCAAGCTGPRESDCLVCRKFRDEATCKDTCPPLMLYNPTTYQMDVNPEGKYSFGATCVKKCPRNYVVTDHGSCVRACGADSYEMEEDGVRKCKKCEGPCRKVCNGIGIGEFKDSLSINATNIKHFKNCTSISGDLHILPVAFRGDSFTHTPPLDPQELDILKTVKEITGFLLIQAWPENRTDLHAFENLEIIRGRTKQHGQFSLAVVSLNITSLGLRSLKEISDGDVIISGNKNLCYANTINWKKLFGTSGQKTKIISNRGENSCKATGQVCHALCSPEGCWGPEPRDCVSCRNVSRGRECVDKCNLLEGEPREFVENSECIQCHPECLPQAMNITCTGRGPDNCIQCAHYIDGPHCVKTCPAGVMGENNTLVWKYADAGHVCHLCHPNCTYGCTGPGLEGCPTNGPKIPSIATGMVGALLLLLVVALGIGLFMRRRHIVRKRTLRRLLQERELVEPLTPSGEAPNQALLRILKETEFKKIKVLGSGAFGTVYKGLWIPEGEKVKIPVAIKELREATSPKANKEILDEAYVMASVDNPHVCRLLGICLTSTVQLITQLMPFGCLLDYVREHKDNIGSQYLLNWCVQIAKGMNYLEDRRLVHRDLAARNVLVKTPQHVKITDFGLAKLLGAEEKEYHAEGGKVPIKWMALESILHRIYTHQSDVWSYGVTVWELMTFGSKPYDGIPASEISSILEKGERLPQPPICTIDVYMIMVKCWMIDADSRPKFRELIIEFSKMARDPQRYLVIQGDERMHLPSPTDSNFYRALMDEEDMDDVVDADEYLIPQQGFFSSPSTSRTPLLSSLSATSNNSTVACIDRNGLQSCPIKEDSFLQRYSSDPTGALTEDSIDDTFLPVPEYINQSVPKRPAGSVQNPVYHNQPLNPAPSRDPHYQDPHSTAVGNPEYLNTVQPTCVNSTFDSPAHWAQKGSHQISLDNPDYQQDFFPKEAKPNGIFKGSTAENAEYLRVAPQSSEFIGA

[5] = Toxicity in BALB/c mouse xenografted with human PC-3 cells assessed as spleen pathological change at 20 mg/kg,ip administrated once every 4 days for 24 days by hematoxylin and eosin staining based analysis; type: organism-based; conditions: in vivo, 576 h, time 24 day
PC-3 [6] = test: Induction of cell cycle arrest in human PC-3 cells assessed as accumulation of cells at G1 phase at 2.5 uM by PI staining based flow cytometry (reference value: 75.66%); type: functional
[7] = molecular target: T1, Son of sevenless homolog 1 (Homo sapiens) (UniProt Q07889); test: Inhibition of SOS1 in human PC-3 cells assessed as downregulation of RAS-GTP expression at 12.5 uM incubated for 15 mins by Western blotting analysis; type: cell-based
T1 sequence (whole entry): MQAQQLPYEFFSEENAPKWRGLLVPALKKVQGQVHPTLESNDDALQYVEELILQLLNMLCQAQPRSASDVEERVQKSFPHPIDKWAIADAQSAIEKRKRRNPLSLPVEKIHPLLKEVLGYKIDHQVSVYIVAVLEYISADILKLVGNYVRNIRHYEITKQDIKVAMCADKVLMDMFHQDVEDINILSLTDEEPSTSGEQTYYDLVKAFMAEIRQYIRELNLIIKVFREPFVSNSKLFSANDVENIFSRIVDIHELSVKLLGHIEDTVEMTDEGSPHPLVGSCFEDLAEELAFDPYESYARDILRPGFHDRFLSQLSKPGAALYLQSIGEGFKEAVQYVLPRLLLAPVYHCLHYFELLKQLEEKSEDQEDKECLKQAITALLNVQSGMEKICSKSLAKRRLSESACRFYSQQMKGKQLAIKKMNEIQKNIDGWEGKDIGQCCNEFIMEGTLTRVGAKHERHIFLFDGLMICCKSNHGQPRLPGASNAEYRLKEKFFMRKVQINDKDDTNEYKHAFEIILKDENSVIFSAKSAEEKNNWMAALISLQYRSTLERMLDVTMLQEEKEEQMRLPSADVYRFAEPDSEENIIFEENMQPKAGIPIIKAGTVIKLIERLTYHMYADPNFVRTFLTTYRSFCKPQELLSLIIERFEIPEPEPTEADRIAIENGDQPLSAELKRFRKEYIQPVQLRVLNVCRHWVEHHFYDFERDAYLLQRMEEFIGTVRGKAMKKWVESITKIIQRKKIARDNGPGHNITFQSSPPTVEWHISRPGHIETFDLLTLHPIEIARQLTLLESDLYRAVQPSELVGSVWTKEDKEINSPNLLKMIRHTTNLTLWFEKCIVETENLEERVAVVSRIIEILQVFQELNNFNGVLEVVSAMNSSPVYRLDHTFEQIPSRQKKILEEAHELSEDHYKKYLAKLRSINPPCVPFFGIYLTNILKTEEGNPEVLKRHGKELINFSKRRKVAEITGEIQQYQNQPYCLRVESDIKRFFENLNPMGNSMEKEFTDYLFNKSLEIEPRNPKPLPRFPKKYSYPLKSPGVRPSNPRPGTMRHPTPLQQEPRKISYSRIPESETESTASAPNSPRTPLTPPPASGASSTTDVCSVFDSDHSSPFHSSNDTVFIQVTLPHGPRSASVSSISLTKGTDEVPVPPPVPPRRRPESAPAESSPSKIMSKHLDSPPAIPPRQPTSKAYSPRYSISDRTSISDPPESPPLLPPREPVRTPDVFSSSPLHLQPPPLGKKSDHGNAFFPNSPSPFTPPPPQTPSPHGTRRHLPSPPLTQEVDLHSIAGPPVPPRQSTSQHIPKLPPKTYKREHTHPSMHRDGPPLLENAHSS

PC-3 [8] = test: Induction of cell cycle arrest in human PC-3 cells assessed as accumulation of cells at G1 phase at 12.5 uM by PI staining based flow cytometry (reference value: 75.66%); type: functional
PC-3 [9] = test: Antitumor activity against human PC-3 cells xenografted in BALB/c mouse assessed as reduction in number of Ki67-positive cells in tumor tissue at ip administrated once every 4 days for 24 days by DAPI staining based immunohistochemical analysis; type: functional, organism-based; conditions: time 24.0 day
[10] = Toxicity in BALB/c mouse xenografted with human PC-3 cells assessed as spleen pathological change at 5 mg/kg,ip administrated once every 4 days for 24 days by hematoxylin and eosin staining based analysis; type: organism-based; conditions: in vivo, 576 h, time 24 day
PC-3 [11] = test: Induction of apoptosis in human PC-3 cells assessed as viable cells at 2.5 uM by Annexin V-FITC staining based flow cytometry (reference value: 94.9%); type: functional; conditions: read-out: Activity
[12] = Toxicity in BALB/c mouse xenografted with human PC-3 cells assessed as change in blood urea nitrogen level at 5 mg/kg,ip administrated once every 4 days for 24 days by automatic biochemical analyzer; type: organism-based; conditions: in vivo, 576 h, time 24 day
PC-3 [13] = test: Induction of apoptosis in human PC-3 cells assessed as late apoptotic cells at 2.5 uM by Annexin V-FITC staining based flow cytometry (reference value: 1.93%); type: functional
HUVEC [14] = test: Antiangiogenic activity in HUVEC cells assessed as reduction of meshes at 0.5 to 12.5 uM incubated for 8 hrs by matrigel based microscopic analysis; type: functional, cell-based; conditions: Homo sapiens, dose 0.5-12.5 µM
PC-3 [15] = test: Antiproliferative activity against human PC-3 cells assessed as reduction in EdU-positive cells at 0.5 to 12.5 uM incubated for 48 hrs by EdU incorporation assay; type: functional, cell-based; conditions: dose 0.5-12.5 µM
PC-3 [16] = test: Induction of apoptosis in human PC-3 cells assessed as necrotic cells at 2.5 uM by Annexin V-FITC staining based flow cytometry (reference value: 0.48%); type: functional
HUVEC [17] = test: Antiangiogenic activity in HUVEC cells assessed as reduction of mean mesh at 0.5 to 12.5 uM incubated for 8 hrs by matrigel based microscopic analysis; type: functional, cell-based; conditions: Homo sapiens, dose 0.5-12.5 µM
HUVEC [18] = test: Antiangiogenic activity in HUVEC cells assessed as reduction in tube formation at 0.5 to 12.5 uM incubated for 8 hrs by matrigel based microscopic analysis; type: functional, cell-based; conditions: Homo sapiens, dose 0.5-12.5 µM
[19] = molecular target: T1, Son of sevenless homolog 1 (Homo sapiens); test: Inhibition of SOS1 in human PC-3 cells assessed as downregulation of ERK phosphorylation at 12.5 uM incubated for 15 mins by Western blotting analysis; type: cell-based
[20] = molecular target: T1, Son of sevenless homolog 1 (Homo sapiens); test: Inhibition of SOS1 in human PC-3 cells assessed as downregulation of AKT phosphorylation at 0.5 uM incubated for 15 mins by Western blotting analysis; type: cell-based

In the case of `COc1cc2ncnc(N[C@H](C)c3cccc(F)c3)c2cc1OC1CCOCC1`, the Activity (PC-3 [1]) is reported as 6.67%, the Activity (PC-3 [2]) is reported as “Dose-Dependent Effect” and the Activity [3] is reported as “Toxic”. The inhibition [4] was “Active”, the Activity [5] was “Toxic” and the Activity (PC-3 [6]) was 81.85%. The inhibition [7] was “Active”, the Activity (PC-3 [8]) was 87.38% and the Activity (PC-3 [9]) was “Dose-Dependent Effect”. For the same molecule, the Activity [10] was “Toxic”, the viability at 2.5 µM (PC-3 [11]) was 79.1% and the Activity [12] was “Non-Toxic”. For the same molecule, the Activity (PC-3 [13]) was 3.36%, the Activity (HUVEC [14]) was “Active” and the Activity (PC-3 [15]) was “Active”. The Activity (PC-3 [16]) was 0.57%, the Activity (HUVEC [17]) was “Active” and the Activity (HUVEC [18]) was “Active”. For the same molecule, the inhibition [19] was “Active” and the inhibition [20] was “Active”.
